This note sets out measurements from patent publication US7652149B2, “Crystalline pyrazoles” (Pharmacia & Upjohn Company LLC, priority 2004, dated 2010).

The series in a line: Suspension crystallization: relative thermodynamic stability of Forms I and II, Tt bracketed. It is filed as physicochemical. The settings on record: for temperature at which the form is the equilibrium solid phase (thermodynamically more stable): mixture of Forms I and II suspended in toluene, at least three days, PXRD. From the text: In this Example, the transition temperature between Forms I and II is described. Form I and Form II are enantiotropic, which means that one polymorph is stable at temperatures below a transition temperature, Tt, but the other polymorph is stable at temperatures above Tt. The two solid phases have equal free energies at the transition temperature. Knowledge of the thermodynamic stability relationship is necessary for the selection of suitable crystallization conditions to produce Form I, and for formulation development and commercial manufacturing. It is important to determine Tt for the preparation and processing of bulk drug.
Materials. The Form I sample used in this study was 100% pure when tested by HPLC. Form II was prepared by heating Form I to 155° C. for 3 days in a dry oven and cooled to room temperature. This Form II sample was free of chemical degradation when tested by HPLC.
Methods. Suspension crystallization. The relative stability relationship between Forms I and II at a specific temperature was bracketed by suspending a mixture of the two polymorphs in toluene in a closed glass vial that was equilibrated at the temperature of interest. Excess solid of one polymorph was first added to saturate toluene in a glass vial at the chosen temperature. The other polymorph was added at least half an hour later. The suspension was stirred continuously for at least three days. A portion of the suspension was withdrawn and immediately filtered. The filtered solid was analyzed using PXRD to identify the equilibrium solid at that temperature. […] By repeating the experiment at different temperatures, the Tt was bracketed.

Turning to `NS(=O)(=O)c1ccc(-n2nc(C(F)(F)F)cc2-c2ccc(F)cc2)cc1` [Form II, 4-[5-(4-fluorophenyl)-3-(trifluoromethyl)-1H-pyrazol-1-yl]-benzenesulfonamide], the “temperature at which the form is the equilibrium solid phase (thermodynamically more stable)” value was at least 71.5 °C. In addition, for the setting “ambient temperature and pressure”, the “relative stability of the crystal form” value is “unstable with respect to another form, Form I”.

On to `NS(=O)(=O)c1ccc(-n2nc(C(F)(F)F)cc2-c2ccc(F)cc2)cc1` [Form I, 4-[5-(4-fluorophenyl)-3-(trifluoromethyl)-1H-pyrazol-1-yl]-benzenesulfonamide], for which the “temperature at which the form is the equilibrium solid phase (thermodynamically more stable)” value was at most 71.0 °C.
